According to PubChem BioAssay AID1919016 (Molecular Pharmacology Branch, DTP, NCI, 2023):
pIC50: −log10 of the molar value. “And” between values parts separate entries of the source, which are not always exact repeats. Equal values may be shown once.

Tested on: NCI-H196 complex spheroid growth, percent test/control
Test: Anticancer human tumor NCI-H196 cell line growth inhibition [AhR];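 note: seven days of drug exposure starting three days after plating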;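 for viability, T/C: 100% = DMSO vehicle control wells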
Conditions: for viability, T/C: stronger effect = lower value
Method in brief: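 Agents were dosed in half-log steps down from roughly clinical Cmax, or from 10 microM where Cmax was unknown, alone and with AhR antagonists. Read-out: percent test/control growth of tumor spheroids containing HUVEC and MSC stromal cells.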

[1] = curve of first compound, second compound 0.1 µM
[2] = curve of first compound, second compound 0.316 µM
[3] = curve of first compound, second compound 1 µM
[4] = curve of first compound, second compound 3.16 µM
[5] = curve of first compound, second compound 10 µM
[6] = second compound 0.1 µM, first compound 0.0316 µM
[7] = second compound 0.1 µM, first compound 0.1 µM
[8] = second compound 0.1 µM, first compound 0.316 µM
[9] = second compound 0.1 µM, first compound 1 µM
[10] = second compound 0.1 µM, first compound 3.16 µM
[11] = second compound 0.1 µM, first compound 10 µM
[12] = second compound 0.316 µM, first compound 0.0316 µM
[13] = second compound 0.316 µM, first compound 0.1 µM
[14] = second compound 0.316 µM, first compound 0.316 µM
[15] = second compound 0.316 µM, first compound 1 µM
[16] = second compound 0.316 µM, first compound 3.16 µM
[17] = second compound 0.316 µM, first compound 10 µM
[18] = second compound 1 µM, first compound 0.0316 µM
[19] = second compound 1 µM, first compound 0.1 µM
[20] = second compound 1 µM, first compound 0.316 µM
[21] = second compound 1 µM, first compound 1 µM
[22] = second compound 1 µM, first compound 3.16 µM
[23] = second compound 1 µM, first compound 10 µM
[24] = second compound 3.16 µM, first compound 0.0316 µM
[25] = second compound 3.16 µM, first compound 0.1 µM
[26] = second compound 3.16 µM, first compound 0.316 µM
[27] = second compound 3.16 µM, first compound 1 µM
[28] = second compound 3.16 µM, first compound 3.16 µM
[29] = second compound 3.16 µM, first compound 10 µM
[30] = second compound 10 µM, first compound 0.0316 µM
[31] = second compound 10 µM, first compound 0.1 µM
[32] = second compound 10 µM, first compound 0.316 µM
[33] = second compound 10 µM, first compound 1 µM
[34] = second compound 10 µM, first compound 3.16 µM
[35] = second compound 10 µM, first compound 10 µM
[36] = second compound 0.1 µM, first compound 0.00316 µM
[37] = second compound 0.1 µM, first compound 0.01 µM
[38] = second compound 0.316 µM, first compound 0.00316 µM
[39] = second compound 0.316 µM, first compound 0.01 µM
[40] = second compound 1 µM, first compound 0.00316 µM
[41] = second compound 1 µM, first compound 0.01 µM
[42] = second compound 3.16 µM, first compound 0.00316 µM
[43] = second compound 3.16 µM, first compound 0.01 µM
[44] = second compound 10 µM, first compound 0.00316 µM
[45] = second compound 10 µM, first compound 0.01 µM

Structure (SMILES) | pIC50 [1] | pIC50 [2] | pIC50 [3] | pIC50 [4] | pIC50 [5] | viability, T/C [6] [%] | viability, T/C [7] [%] | viability, T/C [8] [%] | viability, T/C [9] [%] | viability, T/C [12] [%] | viability, T/C [13] [%] | viability, T/C [14] [%] | viability, T/C [15] [%] | viability, T/C [18] [%] | viability, T/C [19] [%] | viability, T/C [20] [%] | viability, T/C [21] [%] | viability, T/C [24] [%] | viability, T/C [25] [%] | viability, T/C [26] [%] | further results
Nc1ncn(C2CC(O)C(CO)S2)c(=O)n1 (centres undefined) |  |  |  |  |  |  |  |  |  |  |  |  |  |  |  |  |  |  |  |  | viability, T/C (compound 0.000949 µM): 92.7% and 99.1% and 95.1%; viability, T/C (compound 0.003 µM): 107% and 97.7% and 97.9%; viability, T/C (compound 0.00949 µM): 109% (2×) and 117%; viability, T/C (compound 0.03 µM): 109% and 104% and 105%; viability, T/C (compound 0.0949 µM): 118% and 110% and 107%; viability, T/C (compound 0.3 µM): 119% and 96.8% and 117%; pIC50 (curve of compound): < 6.52
CC1(C)CCC(CN2CCN(c3ccc(C(=O)NS(=O)(=O)c4ccc(NCC5CCOCC5)c([N+](=O)[O-])c4)c(Oc4cnc5[nH]ccc5c4)c3)CC2)=C(c2ccc(Cl)cc2)C1 + CC(CO)NC(=O)c1cc(-c2ccc(Cl)cc2)nn(-c2cnn(C)c2)c1=O | < 5.00 | < 5.00 | < 5.00 | < 5.00 | < 5.00 | 99.8 | 100 | 98.9 | 98.2 | 100 | 101 | 100 | 101 | 99.7 | 98.8 | 96.5 | 109 | 98.8 | 101 | 108 | viability, T/C [10]: 106%; viability, T/C [11]: 104%; viability, T/C [16]: 103%; viability, T/C [17]: 86.9%; viability, T/C [22]: 106%; viability, T/C [23]: 104%; viability, T/C [27]: 108%; viability, T/C [28]: 113%; viability, T/C [29]: 99.3%; viability, T/C [30]: 104%; viability, T/C [31]: 113%; viability, T/C [32]: 99.9%; viability, T/C [33]: 115%; viability, T/C [34]: 116%; viability, T/C [35]: 96%
Nc1ncn(C2CC(O)C(CO)O2)c(=O)n1 (centres undefined) + Cc1cncc(-c2nc(NCCc3c[nH]c4ccccc34)c3ncn(C(C)C)c3n2)c1 | < 6.00 | < 6.00 | < 6.00 | < 6.00 | < 6.00 | 104 | 97.9 | 107 | 99.8 | 114 | 104 | 105 | 105 | 115 | 96.3 | 117 | 103 | 109 | 111 | 108 | viability, T/C [36]: 110%; viability, T/C [37]: 105%; viability, T/C [38]: 106%; viability, T/C [39]: 98.5%; viability, T/C [40]: 122%; viability, T/C [41]: 106%; viability, T/C [42]: 102%; viability, T/C [43]: 112%; viability, T/C [27]: 109%; viability, T/C [44]: 96.2%; viability, T/C [45]: 86.9%; viability, T/C [30]: 104%; viability, T/C [31]: 89.6%; viability, T/C [32]: 87.8%; viability, T/C [33]: 86.1%
CCc1c2c(nc3ccc(O)cc13)-c1cc3c(c(=O)n1C2)COC(=O)[C@]3(O)CC |  |  |  |  |  |  |  |  |  |  |  |  |  |  |  |  |  |  |  |  | viability, T/C (compound 0.000949 µM): 89.6% and 96.8% and 99.8%; viability, T/C (compound 0.003 µM): 98.3% (2×) and 108%; viability, T/C (compound 0.00949 µM): 96.8% and 95.2% and 99.4%; viability, T/C (compound 0.03 µM): 96.7% and 109% (2×); viability, T/C (compound 0.0949 µM): 90.5% and 101% and 110%; viability, T/C (compound 0.3 µM): 96.5% and 83.3% and 95.6%; pIC50 (curve of compound): < 6.52
NS(=O)(=O)OCC1CC(n2ccc3c(NC4CCc5ccccc54)ncnc32)CC1O (centres undefined) + Cc1ccccc1N=Nc1ccc(NC(=O)c2ccnn2C)c(C)c1 | < 5.00 | < 5.00 | < 5.00 | < 5.00 | 5.68 | 83.7 | 84.2 | 76.6 | 55.9 | 79.7 | 81.2 | 81.5 | 67.4 | 90.1 | 87.6 | 85.9 | 60.6 | 82.4 | 90.7 | 81.6 | viability, T/C [10]: 70.2%; viability, T/C [11]: 70%; viability, T/C [16]: 74.6%; viability, T/C [17]: 61%; viability, T/C [22]: 73.7%; viability, T/C [23]: 60.8%; viability, T/C [27]: 61.5%; viability, T/C [28]: 60.9%; viability, T/C [29]: 58.8%; viability, T/C [30]: 83.8%; viability, T/C [31]: 87.1%; viability, T/C [32]: 68.2%; viability, T/C [33]: 55.5%; viability, T/C [34]: 46.7%; viability, T/C [35]: 47.4%
Nc1ncn(C2CC(O)C(CO)O2)c(=O)n1 (centres undefined) + Cc1ccccc1N=Nc1ccc(NC(=O)c2ccnn2C)c(C)c1 | < 6.00 | < 6.00 | < 6.00 | < 6.00 | < 6.00 | 94.7 | 94.4 | 104 | 96.6 | 108 | 103 | 108 | 96.4 | 106 | 101 | 84.9 | 94.5 | 105 | 86.4 | 92.5 | viability, T/C [36]: 92.6%; viability, T/C [37]: 105%; viability, T/C [38]: 104%; viability, T/C [39]: 104%; viability, T/C [40]: 88.7%; viability, T/C [41]: 104%; viability, T/C [42]: 97%; viability, T/C [43]: 86.9%; viability, T/C [27]: 89.8%; viability, T/C [44]: 90%; viability, T/C [45]: 97.3%; viability, T/C [30]: 87.6%; viability, T/C [31]: 86.7%; viability, T/C [32]: 78.7%; viability, T/C [33]: 83%
